# Measurements taken from patent publication US20200222418A1, “USE OF PHENOTHIAZINE DERIVATIVE IN THE TREATMENT OF INFECTION CAUSED BY BACTERIA CARRYING TYPE IV PILI” (priority 2017, published 2020).
# How the values were obtained:
# [1] = system: N. meningitidis 2C4.3 isogenic derivative mutant PilT; test: Aggregation of PilT mutant in suspension (phase-contrast video microscopy); type: cell-based, Neisseria meningitidis; details: 50 μM
# Description: N. meningitidis 2C4.3 wild type strain and the isogenic derivative mutant PilT ([…]PiIT) were grown in liquid culture at 10^7 CFU/ml for 2 h to form bacterial aggregates and then treated with 50 μM Trifluoperazine. Time lapse phase-contrast video microscopy was performed to visualize the effect on bacterial aggregates over time. Images were taken at the indicated time points of the video.
# (§1) N. meninigitidis 2C4.3 strain and the isogenic derivative mutant PilT, where the pilT gene was interrupted by an erythromycin-resistance cassette (Pujol et al., 1999), were grown in suspension in DMEM medium supplemented with 10% heat-inactivated fetal calf serum. PilT belongs to a highly conserved protein family homologous to AAA-type motor proteins and is proposed to cause the retraction of type IV pili by disassembling the pilin subunits at the base of the fiber (Morand et al., 2004). After 2 h of growth, Trifluoperazine (or control vehicle) was added at 50 μM for 20 min. The effect on bacterial aggregates were visualized over time using a phase-contrast microscope or the bacterial suspensions were fixed in 4% Paraformaldehyde for 10 min, centrifuged at 1000 rpm for 5 minutes and the bacterial pellets washed in PBS. After negative staining with 1% phosphotungstic acid, bacteria were analysed by transmission electron microscopy, using a JEOL 1011 microscope.
# [2] = system: N. meningitidis 2C4.3 PilT mutant type IV pili; test: Surface expression of type IV pili by transmission electron microscopy, PilT mutant; type: cell-based, Neisseria meningitidis; details: 50 μM
# Description: N. meningitidis 2C4.3 wild type strain and the isogenic derivative mutant PilT ([…]PiIT) were grown in liquid culture at 10^7 CFU/ml for 2 h to form bacterial aggregates and then treated with 50 μM Trifluoperazine for 15 minutes before analysis by transmission electron microscopy. Arrows point at bundles of type IV pili expressed at the bacterial surface.
# as §1
compound,measurement,setting,value
CN1CCN(CCCN2c3ccccc3Sc3ccc(C(F)(F)F)cc32)CC1 [Trifluoperazine],effect on aggregation of PilT mutant strain,[1],had no effect
same,surface expression of type IV pili of PilT mutant,[2],did not affect
